# System: mixed species biofilm
# Experiment: Seahorse XFe Extracellular Flux Analyzer, Mitochondrial Respiration - Oxygen Consumption Rate (OCR) in mixed biofilm assay
# Format: cell-based
# Method: Samples with varying amounts of cannabidiol (CBD) are assessed for their effects on cellular metabolism with and without various source of zinc. Using the Seahorse XF^e Extracellular Flux Analyzer, biofilm samples are grown for 48 hrs. […] The biofilms are harvested for culture. Diluted biofilm and toothpaste slurry are loaded to each well. Glycolysis—Extracellular Acidification Rate (ECAR) and Mitochondrial Respiration—Oxygen Consumption Rate (OCR) is measured for 25-50 cycles (˜360 minutes). The “CBD Oil” is 5% CBD (by wt. of the CBD Oil) in Hemp seed oil.
# Where the “OCR” is oxygen consumption rate units as measured using the Seahorse XF^e Extracellular Flux Analyzer: […]
Structure (SMILES),"Average (OCR) (Table 3, separate experiment, stannous slurry, untreated 11489.9)","Average (OCR) (Table 1, CBD and zinc lactate, biofilm grown 48 hrs, untreated 25,669.50)"
"[F][Sn][F] [0.2% by wt. Stannous Fluoride, Stannous Fluoride]",10440.7,
"CC(O)C(=O)[O-].CC(O)C(=O)[O-].[Zn+2] (centres unmarked) [1.5% Zinc Lactate, Zinc Lactate]",,"21,900.63"

# Reference: patent US20240091110A1, “Oral Care Compositions and Methods of Use” (Colgate-Palmolive Company, priority 2019, published 2024)
